Each structure is given as a SMILES string.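 The compound was tested at five concentrations on cells cultured in 96-well plates, with a 48-hour exposure period. GI50: concentration for 50% inhibition of growth.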 Calls of active or inactive are those of the source. Cut-off read from the data, not from the text of the source: active = GI50 up to about 1.1 µM and inactive = higher.

Test systems include SK-OV-3; OVCAR-5; SK-MEL-28; NCI-H460; PC-3; A549; UACC-62; HCT-15; OVCAR-8; SF-268; SW-620; SF-539; UO-31; HOP-62; NCI-H226; UACC-257; LOX IMVI; M14; Malme-3M; HL-60.
What all share (experiment): NCI-60 cell line screen, 48 h

For `N=C(N)N/N=C\c1ccc(C2CCNCC2)cc1`, the GI50 in the assay with SK-OV-3, in the assay on OVCAR-5, with SK-MEL-28, with NCI-H460, with PC-3 and with A549 was > 100 µM (inactive) each time. Further, the GI50 in the assay on UACC-62 was > 100 µM (inactive); in the assay with HCT-15, over 100 µM; with OVCAR-8, > 100 µM (inactive); in the assay on SF-268, > 100 µM (inactive); with SW-620, > 100 µM (inactive); in the assay with SF-539, > 100 µM (inactive). Also, the GI50 in the assay with UO-31, with HOP-62, in the assay with NCI-H226, in the assay with UACC-257, in the assay with LOX IMVI and in the assay on M14 was > 100 µM (inactive) throughout. In the assay on Malme-3M, the GI50 was > 100 µM (inactive).

As to `COc1ccc2c3c1OC1C4(CCC5C(C2)N(CC2CC2)CCC351)OCCO4` (stereo not given), the GI50 in the assay on SK-OV-3, in the assay on OVCAR-5, in the assay with SK-MEL-28, in the assay with NCI-H460, with PC-3 and in the assay with A549 was > 100 µM (inactive) throughout. For the same molecule, the GI50 with UACC-62 is > 100 µM (inactive); with HCT-15, over 100 µM; in the assay on OVCAR-8 it was > 100 µM (inactive); in the assay on SF-268, > 100 µM (inactive); in the assay on SW-620 it was > 100 µM (inactive); in the assay on UO-31, > 100 µM (inactive). Besides, the GI50 in the assay on HOP-62, in the assay with NCI-H226, with UACC-257, with LOX IMVI, in the assay with HL-60 and with M14 was > 100 µM (inactive) each time. Also, in the assay with Malme-3M, the GI50 was > 100 µM (inactive).

For `Cc1cc2nc3n(c2cc1C)C(c1c(F)cccc1F)SC3` (stereo not given), the GI50 is 62.7 µM (inactive) in the assay with SK-OV-3; 19.2 µM (inactive) in the assay on OVCAR-5; 19.1 µM (inactive) in the assay with SK-MEL-28; 18.1 µM (inactive) with NCI-H460; 17.7 µM (inactive) in the assay on PC-3; 23.7 µM (inactive) in the assay on A549. In addition, the GI50 in the assay with UACC-62 is > 10 µM (inactive); in the assay with HCT-15, over 10 µM; in the assay with OVCAR-8 it was 33.3 µM (inactive); in the assay on SF-268, 27.6 µM (inactive); in the assay on SW-620 it was 21.3 µM (inactive); with SF-539, 19.9 µM (inactive). Moreover, the GI50 is > 10 µM (inactive) in the assay on UO-31; 23.9 µM (inactive) in the assay with HOP-62; 10.5 µM (inactive) with NCI-H226; 30.7 µM (inactive) in the assay on UACC-257; 15.7 µM (inactive) in the assay on LOX IMVI; 19.8 µM (inactive) in the assay with M14. The GI50 with Malme-3M was 20.8 µM (inactive).

For `C=CC1(O)CCCC=C1COCc1ccccc1` (stereo not given), the GI50 is > 100 µM (inactive) with SK-OV-3; > 100 µM (inactive) in the assay with OVCAR-5; 71 µM (inactive) in the assay on SK-MEL-28; > 100 µM (inactive) with NCI-H460; 67.8 µM (inactive) with PC-3; > 100 µM (inactive) in the assay on A549. The GI50 with UACC-62 is > 100 µM (inactive); in the assay on HCT-15, 65.8 µM; in the assay with OVCAR-8, 53 µM (inactive); in the assay with SF-268, 67 µM (inactive); in the assay with UO-31, 45.1 µM (inactive); in the assay on HOP-62, > 100 µM (inactive). Also, the GI50 is > 100 µM (inactive) in the assay on NCI-H226; > 100 µM (inactive) with UACC-257; 18.8 µM (inactive) with LOX IMVI; 27.4 µM (inactive) in the assay on HL-60; > 100 µM (inactive) in the assay with M14; > 100 µM (inactive) with Malme-3M.

The values above are taken from ChEMBL document CHEMBL1201862, “PubChem BioAssay data set” (2004).
